Test results from patent US20060094645A1, “Method for defining and treating chemically-induced immune disorders using tumor necrosis factor (TFNalpha), interleukin-1 (lL-1), and interleulin-6R(lL-6R) antagonists” (priority 2004, published 2006).

Target: T1, TNF (Homo sapiens, UniProt P01375)
T1 construct: endogenous in cells; host or cells: the patients' own TNF in vivo
Experiment: Case report: Arthritis and Vasculitis associated with silicone breast implants, anti-TNF treatment
Format: in vivo
Conditions: patient after implant removal; earlier treatment for over 20 years with corticosteroids and methotrexate

T1 sequence (P01375 77-233 limits assumed): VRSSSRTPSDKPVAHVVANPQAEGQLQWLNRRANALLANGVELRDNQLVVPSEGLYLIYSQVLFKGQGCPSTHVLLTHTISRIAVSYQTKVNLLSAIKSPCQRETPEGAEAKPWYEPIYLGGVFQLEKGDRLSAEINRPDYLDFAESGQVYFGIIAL

outcome of Arthritis and Vasculitis associated with silicone breast implants: without success
SMILES: CN(Cc1cnc2nc(N)nc(N)c2n1)c1ccc(C(=O)N[C@@H](CCC(=O)O)C(=O)O)cc1 [methotrexate]
